Series [1] concerns HL-60. The experiment in a line: Upregulation of Ac-Histone 3 level in human HL-60 cells incubated for 6 hrs by Western blot analysis. Type of series: functional, cell-based. The settings on record: dose <= 1000.0 nM.
Series [2] is described as follows: Half life in Sprague-Dawley rat at 25 mg/kg, po measured upto 8 hrs by LC/MS-MS analysis. Type of series: ADME, organism-based. The settings on record: in vivo.
The subject of series [3] is U-937. The series is described as follows: Induction of apoptosis in human U-937 cells assessed as necrotic cells at 0.5 uM incubated for 48 hrs by annexin V-FITC/PI satining based flow cytometry (reference value: 1.96 %). Type of series: functional. (In general: Flow cytometry measures light scatter and fluorescence of single cells or particles in a stream.)
Series [4] has as its target Histone deacetylase 7 (Homo sapiens, UniProt Q8WUI4). The experiment in a line: Inhibition of recombinant human HDAC7 using HDAC substrate incubated for 30 mins by fluorescence based assay.
Series [5] relates to U-937. The experiment in a line: Induction of differentiation in human U-937 cells assessed as increase in CD11b positive cells at 1 uM incubated for 48 hrs by FITC staining based flow cytometry (reference value: 2.72 %). It counts as functional.
Series [6] has as its target CDK4/Cyclin D3 (Homo sapiens) (UniProt P11802+P30281). The experiment in a line: Inhibition of CDK4/cyclinD3 (unknown origin) at 100 nM preincubated for 20 mins followed by [gamma-33P]ATP addition measured after 120 mins in presence of ATP by Hot-SpotSM kinase assay relative to control. The settings on record: time 140.0 min. Type of series: protein-complex assay.
Series [7] relates to U-937. The experiment in a line: Induction of apoptosis in human U-937 cells assessed as viable cells at 2 uM incubated for 48 hrs by annexin V-FITC/PI satining based flow cytometry (reference value: 90.0 %). It counts as functional. The settings on record: read-out: Activity.
In series [8] the test system is HL-60. The series is described as follows: Induction of apoptosis in human HL-60 cells assessed as late apoptotic cells at 0.5 uM incubated for 48 hrs by annexin V-FITC/PI satining based flow cytometry (reference value: 1.33 %). Type of series: functional.
Series [9] concerns U-937. The experiment in a line: Induction of apoptosis in human U-937 cells assessed as necrotic cells at 0.2 uM incubated for 48 hrs by annexin V-FITC/PI satining based flow cytometry (reference value: 1.96 %). It counts as functional.
Series [10] addresses CDK12/Cyclin K (Homo sapiens) (UniProt O75909+Q9NYV4). The experiment in a line: Inhibition of CDK12/cyclinK (unknown origin) at 100 nM preincubated for 20 mins followed by [gamma-33P]ATP addition measured after 120 mins in presence of ATP by Hot-SpotSM kinase assay relative to control. Type of series: protein-complex assay. The conditions noted are these: time 140.0 min.
Series [11] can be described thus: Cytotoxicity against human Kasumi 1 cells assessed as CD34positive CD38negative leukemic stem cell-like cells sub-population at 0.5 uM incubated for 24 hrs by APC/FITC satining based flow cytometry (reference value: 96.8 %). It counts as functional.
Series [12] has as its target Histone deacetylase 1 (Homo sapiens, UniProt Q13547). The experiment in a line: Inhibition of recombinant human HDAC1 using HDAC substrate incubated for 30 mins by fluorescence based assay.
The target in series [13] is Histone deacetylase 9 (Homo sapiens, UniProt Q9UKV0). The experiment in a line: Inhibition of recombinant human HDAC9 using HDAC substrate incubated for 30 mins by fluorescence based assay.
Chain of Histone deacetylase 9 (Q9UKV0 whole entry): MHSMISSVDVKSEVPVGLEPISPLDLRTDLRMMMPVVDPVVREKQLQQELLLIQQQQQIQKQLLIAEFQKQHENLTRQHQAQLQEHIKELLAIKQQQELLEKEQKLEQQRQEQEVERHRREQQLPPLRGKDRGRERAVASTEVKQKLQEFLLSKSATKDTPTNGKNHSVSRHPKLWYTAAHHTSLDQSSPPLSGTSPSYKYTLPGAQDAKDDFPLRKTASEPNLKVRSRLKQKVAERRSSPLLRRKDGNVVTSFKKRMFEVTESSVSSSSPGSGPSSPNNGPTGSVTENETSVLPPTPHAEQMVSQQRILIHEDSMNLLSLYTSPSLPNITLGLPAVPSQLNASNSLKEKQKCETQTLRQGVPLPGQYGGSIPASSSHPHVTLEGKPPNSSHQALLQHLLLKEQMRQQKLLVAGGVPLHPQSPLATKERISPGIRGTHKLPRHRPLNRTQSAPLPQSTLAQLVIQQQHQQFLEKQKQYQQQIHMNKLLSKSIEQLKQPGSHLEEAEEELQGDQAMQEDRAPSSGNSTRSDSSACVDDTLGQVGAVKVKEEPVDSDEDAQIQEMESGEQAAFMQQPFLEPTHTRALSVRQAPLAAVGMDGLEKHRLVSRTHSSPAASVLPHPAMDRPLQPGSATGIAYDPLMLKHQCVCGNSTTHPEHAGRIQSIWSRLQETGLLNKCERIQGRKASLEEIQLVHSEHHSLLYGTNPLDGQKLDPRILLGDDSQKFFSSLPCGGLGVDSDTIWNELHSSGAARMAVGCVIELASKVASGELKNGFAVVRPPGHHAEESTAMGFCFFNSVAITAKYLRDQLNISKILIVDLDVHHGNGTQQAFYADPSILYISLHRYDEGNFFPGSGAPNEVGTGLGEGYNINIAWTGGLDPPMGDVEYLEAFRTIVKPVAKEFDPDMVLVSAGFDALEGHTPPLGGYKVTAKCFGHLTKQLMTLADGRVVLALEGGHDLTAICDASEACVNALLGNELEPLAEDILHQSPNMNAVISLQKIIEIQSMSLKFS
The target of series [14] is CDK9/cyclin T1 (Homo sapiens) (UniProt O60563+P50750). The series is described as follows: Inhibition of CDK9/cyclinT1 (unknown origin) at 100 nM preincubated for 20 mins followed by [gamma-33P]ATP addition measured after 120 mins in presence of ATP by Hot-SpotSM kinase assay relative to control. The settings on record: time 140.0 min. Type of series: protein-complex assay.

In series [15] the test system is HL-60. The series is described as follows: Induction of apoptosis in human HL-60 cells assessed as late apoptotic cells at 2 uM incubated for 48 hrs by annexin V-FITC/PI satining based flow cytometry (reference value: 1.33 %). It counts as functional.
The target of series [16] is CDK3/Cyclin E (Homo sapiens) (UniProt P24864+Q00526). The series is described as follows: Inhibition of CDK3/cyclinE1 (unknown origin) at 100 nM preincubated for 20 mins followed by [gamma-33P]ATP addition measured after 120 mins in presence of ATP by Hot-SpotSM kinase assay relative to control. Type of series: protein-complex assay. The conditions noted are these: time 140.0 min.

In series [17] the test system is U-937. The series is described as follows: Induction of apoptosis in human U-937 cells assessed as viable cells at 0.2 uM incubated for 48 hrs by annexin V-FITC/PI satining based flow cytometry (reference value: 90.0 %). It counts as functional. The settings on record: read-out: Activity.
In series [18] the test system is HL-60. The experiment in a line: Downregulation of Pol-II S2 level in human HL-60 cells incubated for 6 hrs by Western blot analysis. The settings on record: dose <= 1000.0 nM. Type of series: functional, cell-based. For orientation: In western blotting, separated proteins are transferred to a membrane and probed.
Series [19] deals with Histone deacetylase 3 (Homo sapiens, UniProt O15379). The experiment in a line: Inhibition of HDAC3 in human nuclear extract using Ac-Arg-Gly-Lys(Ac)-AMC as substrate at 1 uM incubated overnight by fluorescence based assay relative to control. Type of series: subcellular. The conditions noted are these: HeLa, Nucleus.
Chain of Histone deacetylase 3 (O15379 whole entry): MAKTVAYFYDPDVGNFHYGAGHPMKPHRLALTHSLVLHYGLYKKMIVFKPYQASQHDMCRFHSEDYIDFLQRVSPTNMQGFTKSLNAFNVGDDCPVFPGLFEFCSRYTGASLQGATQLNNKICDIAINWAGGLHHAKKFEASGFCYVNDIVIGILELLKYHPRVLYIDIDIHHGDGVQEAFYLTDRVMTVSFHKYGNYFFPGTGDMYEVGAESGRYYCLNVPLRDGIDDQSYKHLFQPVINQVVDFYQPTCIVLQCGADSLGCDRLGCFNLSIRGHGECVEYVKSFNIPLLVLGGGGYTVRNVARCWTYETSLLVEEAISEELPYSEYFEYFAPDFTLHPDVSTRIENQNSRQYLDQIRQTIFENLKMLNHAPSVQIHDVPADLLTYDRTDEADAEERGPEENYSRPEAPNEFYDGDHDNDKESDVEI
The subject of series [20] is U-937. The experiment in a line: Induction of apoptosis in human U-937 cells assessed as late apoptotic cells at 0.2 uM incubated for 48 hrs by annexin V-FITC/PI satining based flow cytometry (reference value: 7.10 %). It counts as functional.
Series [21] concerns HL-60. The experiment in a line: Induction of apoptosis in human HL-60 cells assessed as necrotic cells at 0.5 uM incubated for 48 hrs by annexin V-FITC/PI satining based flow cytometry (reference value: 0.00 %). Type of series: functional.
Series [22] has as its system U-937. The experiment in a line: Induction of apoptosis in human U-937 cells assessed as viable cells at 0.6 uM incubated for 48 hrs by annexin V-FITC/PI satining based flow cytometry (reference value: 93.7 %). It counts as functional. The settings on record: read-out: Activity.
The test system of series [23] is U-937. The series is described as follows: Induction of apoptosis in human U-937 cells assessed as early apoptotic cells at 1.2 uM incubated for 48 hrs by annexin V-FITC/PI satining based flow cytometry (reference value: 1.93 %). Type of series: functional.
The nature of series [24]: Cytotoxicity against human Kasumi 1 cells assessed as CD34positive CD38negative leukemic stem cell-like cells sub-population at 1 uM incubated for 24 hrs by APC/FITC satining based flow cytometry (reference value: 95.8 %). It counts as functional.
The subject of series [25] is HL-60. The experiment in a line: Induction of apoptosis in human HL-60 cells assessed as early apoptotic cells at 1.2 uM incubated for 48 hrs by annexin V-FITC/PI satining based flow cytometry (reference value: 2.4 %). It counts as functional.
Series [26] concerns U-937. The series is described as follows: Induction of apoptosis in human U-937 cells assessed as viable cells at 5 uM incubated for 48 hrs by annexin V-FITC/PI satining based flow cytometry (reference value: 93.7 %). Type of series: functional. The settings on record: read-out: Activity.
Series [27] deals with U-937. The series is described as follows: Induction of apoptosis in human U-937 cells assessed as late apoptotic cells at 1.2 uM incubated for 48 hrs by annexin V-FITC/PI satining based flow cytometry (reference value: 4.23 %). It counts as functional.
Series [28] relates to U-937. The experiment in a line: Induction of differentiation in human U-937 cells assessed as increase in CD11b positive cells at 5 uM incubated for 48 hrs by FITC staining based flow cytometry (reference value: […] %). Type of series: functional.
Series [29] concerns HL-60. The series is described as follows: Induction of apoptosis in human HL-60 cells assessed as late apoptotic cells at 1.2 uM incubated for 48 hrs by annexin V-FITC/PI satining based flow cytometry (reference value: 2.83 %). Type of series: functional.
Series [30] relates to U-937. The series is described as follows: Induction of apoptosis in human U-937 cells assessed as early apoptotic cells at 0.6 uM incubated for 48 hrs by annexin V-FITC/PI satining based flow cytometry (reference value: 1.93 %). Type of series: functional.
The subject of series [31] is U-937. The experiment in a line: Induction of apoptosis in human U-937 cells assessed as necrotic cells at 5 uM incubated for 48 hrs by annexin V-FITC/PI satining based flow cytometry (reference value: 0.102 %). Type of series: functional.
The test system of series [32] is U-937. The series is described as follows: Induction of apoptosis in human U-937 cells assessed as necrotic cells at 1.2 uM incubated for 48 hrs by annexin V-FITC/PI satining based flow cytometry (reference value: 0.102 %). Type of series: functional.

Bounds are passed on as bounds.

Chain of CDK12/Cyclin K (Homo sapiens) (O75909 whole entry, looked up): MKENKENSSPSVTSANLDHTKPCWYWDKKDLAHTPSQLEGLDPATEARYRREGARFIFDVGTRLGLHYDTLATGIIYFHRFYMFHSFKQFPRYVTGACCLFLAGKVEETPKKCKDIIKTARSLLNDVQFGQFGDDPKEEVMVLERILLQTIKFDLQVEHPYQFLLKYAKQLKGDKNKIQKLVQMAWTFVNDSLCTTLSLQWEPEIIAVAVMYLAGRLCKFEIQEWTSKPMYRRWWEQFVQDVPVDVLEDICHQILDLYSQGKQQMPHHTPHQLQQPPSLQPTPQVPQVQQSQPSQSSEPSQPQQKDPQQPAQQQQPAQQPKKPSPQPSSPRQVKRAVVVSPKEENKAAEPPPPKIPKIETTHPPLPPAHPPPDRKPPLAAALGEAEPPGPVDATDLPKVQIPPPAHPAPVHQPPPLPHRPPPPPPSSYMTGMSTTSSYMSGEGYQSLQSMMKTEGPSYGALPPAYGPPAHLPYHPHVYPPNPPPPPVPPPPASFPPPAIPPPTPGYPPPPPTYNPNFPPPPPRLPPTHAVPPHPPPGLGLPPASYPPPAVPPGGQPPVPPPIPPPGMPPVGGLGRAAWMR
Chain of CDK12/Cyclin K (Homo sapiens) (Q9NYV4 whole entry, looked up): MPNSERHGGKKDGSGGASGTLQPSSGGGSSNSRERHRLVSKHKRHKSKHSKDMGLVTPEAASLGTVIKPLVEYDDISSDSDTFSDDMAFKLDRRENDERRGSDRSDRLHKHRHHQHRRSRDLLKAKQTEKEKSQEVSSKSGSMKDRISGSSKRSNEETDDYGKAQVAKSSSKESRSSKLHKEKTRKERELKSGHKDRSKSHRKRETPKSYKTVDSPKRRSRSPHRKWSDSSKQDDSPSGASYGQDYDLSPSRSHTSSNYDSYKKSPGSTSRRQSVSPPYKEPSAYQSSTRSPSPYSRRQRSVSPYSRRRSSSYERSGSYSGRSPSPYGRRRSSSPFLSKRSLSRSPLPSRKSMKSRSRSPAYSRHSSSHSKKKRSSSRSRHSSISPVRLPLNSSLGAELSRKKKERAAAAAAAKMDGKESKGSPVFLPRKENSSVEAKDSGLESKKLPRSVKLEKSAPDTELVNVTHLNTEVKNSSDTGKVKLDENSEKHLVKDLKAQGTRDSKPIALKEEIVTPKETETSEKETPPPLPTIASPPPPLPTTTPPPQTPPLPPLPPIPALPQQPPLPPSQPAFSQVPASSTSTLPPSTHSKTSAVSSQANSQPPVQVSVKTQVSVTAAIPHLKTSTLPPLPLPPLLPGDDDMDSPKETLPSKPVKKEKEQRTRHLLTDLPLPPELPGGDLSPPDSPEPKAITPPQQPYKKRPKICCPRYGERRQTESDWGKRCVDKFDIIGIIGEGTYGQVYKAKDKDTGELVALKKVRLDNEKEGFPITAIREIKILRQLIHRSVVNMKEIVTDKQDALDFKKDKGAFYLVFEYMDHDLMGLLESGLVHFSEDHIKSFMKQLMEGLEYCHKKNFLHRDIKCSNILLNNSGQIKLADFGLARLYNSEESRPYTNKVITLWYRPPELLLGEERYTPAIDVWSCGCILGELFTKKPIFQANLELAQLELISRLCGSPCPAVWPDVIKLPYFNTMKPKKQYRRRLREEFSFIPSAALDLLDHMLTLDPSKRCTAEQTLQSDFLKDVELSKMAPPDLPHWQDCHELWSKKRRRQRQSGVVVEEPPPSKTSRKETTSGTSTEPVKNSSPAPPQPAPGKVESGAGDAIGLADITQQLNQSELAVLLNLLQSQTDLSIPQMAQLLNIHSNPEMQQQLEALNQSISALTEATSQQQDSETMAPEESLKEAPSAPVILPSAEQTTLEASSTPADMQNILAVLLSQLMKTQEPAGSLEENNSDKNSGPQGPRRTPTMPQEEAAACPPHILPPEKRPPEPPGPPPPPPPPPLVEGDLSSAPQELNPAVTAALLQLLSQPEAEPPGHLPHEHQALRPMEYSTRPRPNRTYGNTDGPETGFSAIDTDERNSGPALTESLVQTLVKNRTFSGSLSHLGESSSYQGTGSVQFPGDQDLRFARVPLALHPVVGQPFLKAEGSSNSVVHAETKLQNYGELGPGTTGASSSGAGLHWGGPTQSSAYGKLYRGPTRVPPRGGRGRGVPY
Chain of Histone deacetylase 7 (Q8WUI4 whole entry): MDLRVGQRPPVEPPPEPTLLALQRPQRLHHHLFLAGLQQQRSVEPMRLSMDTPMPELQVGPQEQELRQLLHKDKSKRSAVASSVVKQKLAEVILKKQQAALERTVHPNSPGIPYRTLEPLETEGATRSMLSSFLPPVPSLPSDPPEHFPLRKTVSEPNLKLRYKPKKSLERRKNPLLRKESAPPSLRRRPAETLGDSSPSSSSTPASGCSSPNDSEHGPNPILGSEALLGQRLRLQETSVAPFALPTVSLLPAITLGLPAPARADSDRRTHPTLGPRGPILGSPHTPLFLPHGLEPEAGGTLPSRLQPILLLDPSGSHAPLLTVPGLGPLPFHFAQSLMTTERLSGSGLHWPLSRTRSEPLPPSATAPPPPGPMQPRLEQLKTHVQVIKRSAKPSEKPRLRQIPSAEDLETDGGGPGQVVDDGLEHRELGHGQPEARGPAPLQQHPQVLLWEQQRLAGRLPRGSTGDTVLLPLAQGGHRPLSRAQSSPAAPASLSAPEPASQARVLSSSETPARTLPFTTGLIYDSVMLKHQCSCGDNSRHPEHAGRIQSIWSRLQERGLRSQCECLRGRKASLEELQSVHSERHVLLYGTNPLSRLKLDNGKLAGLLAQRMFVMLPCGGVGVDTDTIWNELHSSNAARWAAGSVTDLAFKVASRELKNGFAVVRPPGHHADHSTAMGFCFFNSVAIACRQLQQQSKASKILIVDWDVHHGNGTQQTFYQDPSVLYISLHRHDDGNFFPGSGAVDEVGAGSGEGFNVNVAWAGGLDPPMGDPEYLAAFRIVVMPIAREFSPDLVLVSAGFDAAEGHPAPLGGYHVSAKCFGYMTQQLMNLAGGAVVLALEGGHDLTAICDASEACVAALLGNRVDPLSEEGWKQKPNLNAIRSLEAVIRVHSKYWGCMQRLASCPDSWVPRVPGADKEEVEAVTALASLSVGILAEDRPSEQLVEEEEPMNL
Chain of Histone deacetylase 1 (Q13547 whole entry): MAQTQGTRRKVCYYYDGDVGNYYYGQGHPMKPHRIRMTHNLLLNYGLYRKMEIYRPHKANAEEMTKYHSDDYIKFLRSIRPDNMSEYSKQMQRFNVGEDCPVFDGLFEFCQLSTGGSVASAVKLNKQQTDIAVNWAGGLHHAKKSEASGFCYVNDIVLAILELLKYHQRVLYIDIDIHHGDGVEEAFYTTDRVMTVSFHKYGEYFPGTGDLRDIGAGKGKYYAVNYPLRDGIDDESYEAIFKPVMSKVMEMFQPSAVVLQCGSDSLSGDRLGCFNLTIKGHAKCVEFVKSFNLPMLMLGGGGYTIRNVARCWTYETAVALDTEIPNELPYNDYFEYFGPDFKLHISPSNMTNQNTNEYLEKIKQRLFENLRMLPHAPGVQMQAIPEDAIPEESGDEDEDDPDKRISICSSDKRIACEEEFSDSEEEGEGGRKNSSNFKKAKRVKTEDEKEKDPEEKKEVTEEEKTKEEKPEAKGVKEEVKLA

By IC50 is commonly meant the midpoint of a concentration-inhibition curve. One may read the inhibition as how much of the control response was suppressed. In the case of `Nc1ccccc1NC(=O)c1ccc(NC(=O)c2n[nH]cc2NC(=O)c2c(Cl)cccc2Cl)cc1`, the Activity entry is “Dose-Dependent Effect” in series [1]; 4.15% in series [3]; 6% in series [5]; 3.16% in series [8]; 2.9% in series [9]; 45.4% in [11]. In addition, the Activity in series [15] was 54.5%; in series [18], “Dose-Dependent Effect”; in series [20], 8.15%; in series [21], 0.01%. In series [2], this compound gave a t1/2 of 1.37 h. For the same compound, the IC50 was > 1000 nM in series [4], 35.7 nM in series [12] and > 1000 nM in series [13]. Further, the inhibition amounted to 72.8% in series [6]; 98.8% in series [10]; 98.3% in [14]; 36.3% in series [16]; 100% in [19]. In addition, in series [7], the viability at 2 µM was determined as 5.82%. Also, the viability at 0.2 µM in series [17] turned out to be 87.4%.

`Nc1cc(F)ccc1NC(=O)c1ccc(CNC(=O)/C=C/c2cccnc2)cc1` [TUCIDINOSTAT]: the viability at 0.6 µM in series [22] is 93.5%. For the same compound, the Activity is 2.74% in series [23]; 88.5% in [24]; 3.72% in [25]; 6.77% in series [27]; 5.7% in series [28]; 11.5% in [29]. Besides, the Activity is reported as 1.65% in series [30], 0.117% in series [31] and 0.142% in series [32]. In addition, the viability at 5 µM in series [26] is 72.6%.
